Source: US9346795B2, “Substituted sulfonamides useful as antiapoptotic Bcl inhibitors” (Bristol-Myers Squibb Company, priority 2011, dated 2016)

Assays:
Bcl-2 = Bcl-2 (Homo sapiens (Human), UniProt P10415); assay: Bcl-2/Bim Fluorescence Polarization Assay (FPA); format: binding
Procedure: Bcl-2/Bim Fluorescence Polarization Assay (FPA)
The assays were performed in black flat-bottom 384-well plates. […] The reaction was incubated at room temperature for 60 minutes and fluorescence polarization of the reaction was detected on the LJL Plate Reader. Inhibition data were calculated from mP values generated by the no protein control reactions for 100% inhibition and vehicle-only reactions for 0% inhibition. The final concentrations of reagents in the assay were 4.9 nM BCL-2, 5 nM fluoresceinated 18-mer BIM peptide and 1% DMSO. […] Compounds were dissolved at 10 mM in dimethylsulfoxide (DMSO) and evaluated at eleven concentrations. IC50 values were derived by non-linear regression analysis.

Bcl-xL = Bcl-xL (Homo sapiens (Human), UniProt Q07817); assay: Bcl-xL/Bim Fluorescence Resonance Energy Transfer Assay (FRET); format: binding
Procedure: Bcl-xL/Bim Fluorescence Resonance Energy Transfer Assay (FRET) The assays were performed in black flat-bottom 384-well plates. The final assay volume was 55 μl prepared from additions of Biotin-Bcl-xL (Bcl-xL: GENBANK® Accession No. […] The reaction was incubated at room temperature for 60 minutes. After 60 minutes, 5 μL of Streptavidin-Terbium FRET detection reagent (Perkin Elmer) was added to the reaction mixture and incubated at room temperature in the dark for 30 mins. […] Compounds were dissolved at 10 mM in dimethylsulfoxide (DMSO) and evaluated at eleven concentrations. IC50 values were derived by non-linear regression analysis.

Sequence of Bcl-xL (Q07817 whole entry): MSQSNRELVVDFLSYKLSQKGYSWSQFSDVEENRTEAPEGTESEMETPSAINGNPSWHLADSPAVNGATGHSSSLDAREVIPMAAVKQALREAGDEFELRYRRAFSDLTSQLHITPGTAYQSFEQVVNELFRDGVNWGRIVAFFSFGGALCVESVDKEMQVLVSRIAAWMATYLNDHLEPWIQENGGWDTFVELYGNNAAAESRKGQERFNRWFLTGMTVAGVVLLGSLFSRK
Sequence of Bcl-2 (P10415 whole entry): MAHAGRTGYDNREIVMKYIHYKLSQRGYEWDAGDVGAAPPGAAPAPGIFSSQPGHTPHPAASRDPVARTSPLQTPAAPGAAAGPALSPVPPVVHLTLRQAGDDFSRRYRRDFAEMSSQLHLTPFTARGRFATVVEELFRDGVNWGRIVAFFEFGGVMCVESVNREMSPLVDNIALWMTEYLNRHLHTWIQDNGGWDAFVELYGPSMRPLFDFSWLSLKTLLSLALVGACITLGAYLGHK

| IC50 (Bcl-2) [nM] | IC50 (Bcl-xL) [nM] | SMILES |
| --- | --- | --- |
| 10 | 30 | CCCCN(CCCC)C(=O)c1nn(-c2ccc(C(=O)NS(=O)(=O)c3ccc4ccc(OCc5ccccc5)cc4c3)cc2C(=O)N2CCc3ccccc3C2)c(C)c1Cl [Example 18, 1-(4-(7-(benzyloxy)naphthalen-2-ylsulfonylcarbamoyl)-2-(1,2,3,4-tetrahydroisoquinoline-2-carbonyl)phenyl)-N,N-dibutyl-4-chloro-5-methyl-1H-pyrazole-3-carboxamide] |
| 50 | 20 | CCCCN(CCCC)C(=O)c1nn(-c2ccc(C(=O)NS(=O)(=O)c3ccc4ccc(OC(C)C)cc4c3)cc2C(=O)N2CCc3ccccc3C2)c(C)c1Cl [Example 24, N,N-dibutyl-4-chloro-1-(4-(7-isopropoxynaphthalen-2-ylsulfonylcarbamoyl)-2-(1,2,3,4-tetrahydroisoquinoline-2-carbonyl)phenyl)-5-methyl-1H-pyrazole-3-carboxamide] |
| 110 | 40 | CCCCN(CCCC)C(=O)c1nn(-c2ccc(C(=O)NS(=O)(=O)c3ccc4cccc(OCCN5CCOCC5)c4c3)cc2C(=O)N2CCc3ccccc3C2)c(C)c1Cl [Example 27, N,N-dibutyl-4-chloro-5-methyl-1-(4-(8-(2-morpholinoethoxy)naphthalen-2-ylsulfonylcarbamoyl)-2-(1,2,3,4-tetrahydroisoquinoline-2-carbonyl)phenyl)-1H-pyrazole-3-carboxamide] |
| 30 | 70 | CCCCN(CCCC)C(=O)c1nn(-c2ccc(C(=O)NS(=O)(=O)c3ccc4c(N(C)C)ccc(Br)c4c3)cc2C(=O)N2CCc3ccccc3C2)c(C)c1Cl [Example 31, 1-(4-(8-bromo-5-(dimethylamino)naphthalen-2-ylsulfonylcarbamoyl)-2-(1,2,3,4-tetrahydroisoquinoline-2-carbonyl)phenyl)-N,N-dibutyl-4-chloro-5-methyl-1H-pyrazole-3-carboxamide] |
| 290 | 50 | CCCCN(CCCC)C(=O)c1nn(-c2ccc(C(=O)NS(=O)(=O)c3ccc4cccc(OCCCN5CCOCC5)c4c3)cc2C(=O)N2CCc3ccccc3C2)c(C)c1Cl [Example 32, N,N-dibutyl-4-chloro-5-methyl-1-(4-(8-(3-morpholinopropoxy)naphthalen-2-ylsulfonylcarbamoyl)-2-(1,2,3,4-tetrahydroisoquinoline-2-carbonyl)phenyl)-1H-pyrazole-3-carboxamide] |
| 290 | 40 | CCCCN(CCCC)C(=O)c1nn(-c2ccc(C(=O)NS(=O)(=O)c3ccc4ccc(OCCCN5CCOCC5)cc4c3)cc2C(=O)N2CCc3ccccc3C2)c(C)c1Cl [Example 34, N,N-dibutyl-4-chloro-5-methyl-1-(4-(7-(3-morpholinopropoxy)naphthalen-2-ylsulfonylcarbamoyl)-2-(1,2,3,4-tetrahydroisoquinoline-2-carbonyl)phenyl)-1H-pyrazole-3-carboxamide] |
| 510 | 40 | CCCCN(CCCC)C(=O)c1nn(-c2ccc(C(=O)NS(=O)(=O)c3ccc4ccc(OCCCN5CCN(C)CC5)cc4c3)cc2C(=O)N2CCc3ccccc3C2)c(C)c1Cl [Example 35, N,N-dibutyl-4-chloro-5-methyl-1-(4-(7-(3-(4-methylpiperazin-1-yl)propoxy)naphthalen-2-ylsulfonylcarbamoyl)-2-(1,2,3,4-tetrahydroisoquinoline-2-carbonyl)phenyl)-1H-pyrazole-3-carboxamide] |
| 490 | 10 | CCCCN(CCCC)C(=O)c1nn(-c2ccc(C(=O)NS(=O)(=O)c3ccc4ccc(OC(C)CN(C)C)cc4c3)cc2C(=O)N2CCc3ccccc3C2)c(C)c1Cl (centres unmarked) [Example 37, N,N-dibutyl-4-chloro-1-(4-(7-(1-(dimethylamino)propan-2-yloxy)naphthalen-2-ylsulfonylcarbamoyl)-2-(1,2,3,4-tetrahydroisoquinoline-2-carbonyl)phenyl)-5-methyl-1H-pyrazole-3-carboxamide] |
| 1460 | 20 | CCCCN(CCCC)C(=O)c1nn(-c2ccc(C(=O)NS(=O)(=O)c3ccc4ccc(OCCCN(C)C)cc4c3)cc2C(=O)N2CCc3ccccc3C2)c(C)c1Cl [Example 39, N,N-dibutyl-4-chloro-1-(4-(7-(3-(dimethylamino)propoxy)-naphthalen-2-ylsulfonylcarbamoyl)-2-(1,2,3,4-tetrahydroisoquinoline-2-carbonyl)phenyl)-5-methyl-1H-pyrazole-3-carboxamide] |
| 3780 | 30 | CCCCN(CCCC)C(=O)c1nn(-c2ccc(C(=O)NS(=O)(=O)c3ccc4ccc(OCCCN5CCCC5)cc4c3)cc2C(=O)N2CCc3ccccc3C2)c(C)c1Cl [Example 40, N,N-dibutyl-4-chloro-5-methyl-1-(4-(7-(3-(pyrrolidin-1-yl)propoxy)naphthalen-2-ylsulfonylcarbamoyl)-2-(1,2,3,4-tetrahydroisoquinoline-2-carbonyl)phenyl)-1H-pyrazole-3-carboxamide] |
| 3.93 | 20 | CCCCN(CCCC)C(=O)c1nn(-c2ccc(C(=O)NS(=O)(=O)c3ccc4c(Cl)ccc(Br)c4c3)cc2C(=O)N2CCc3ccccc3C2)c(C)c1Cl [Example 43, 1-(4-(8-bromo-5-chloronaphthalen-2-ylsulfonylcarbamoyl)-2-(1,2,3,4-tetrahydroisoquinoline-2-carbonyl)phenyl)-N,N-dibutyl-4-chloro-5-methyl-1H-pyrazole-3-carboxamide] |
| 7.25 | 30 | CCCCN(CCCC)C(=O)c1nn(-c2ccc(C(=O)NS(=O)(=O)c3ccc4c(Cl)ccc(Cl)c4c3)cc2C(=O)N2CCc3ccccc3C2)c(C)c1Cl [Example 44, N,N-dibutyl-4-chloro-1-(4-(5,8-dichloronaphthalen-2-ylsulfonylcarbamoyl)-2-(1,2,3,4-tetrahydroisoquinoline-2-carbonyl)phenyl)-5-methyl-1H-pyrazole-3-carboxamide] |
| 90 | 40 | CCCCN(CCCC)C(=O)c1nn(-c2ccc(C(=O)NS(=O)(=O)c3ccc4ccc(C(=O)N5CCN(C)CC5)cc4c3)cc2C(=O)N2CCc3ccccc3C2)c(C)c1Cl [Example 46, N,N-Dibutyl-4-chloro-5-methyl-1-(4-(7-(4-methylpiperazine-1-carbonyl)naphthalen-2-ylsulfonylcarbamoyl)-2-(1,2,3,4-tetrahydroisoquinoline-2-carbonyl)phenyl)-1H-pyrazole-3-carboxamide] |
| 150 | 80 | CCCCN(CCCC)C(=O)c1nn(-c2ccc(C(=O)NS(=O)(=O)c3ccc4ccc(C(=O)N(C)C)cc4c3)cc2C(=O)N2CCc3ccccc3C2)c(C)c1Cl [Example 48, N,N-Dibutyl-4-chloro-1-(4-(7-(dimethylcarbamoyl)naphthalen-2-ylsulfonylcarbamoyl)-2-(1,2,3,4-tetrahydroisoquinoline-2-carbonyl)phenyl)-5-methyl-1H-pyrazole-3-carboxamide] |
| 60 | 10 | CCCCN(CCCC)C(=O)c1nn(-c2ccc(C(=O)NS(=O)(=O)c3ccc4c(c3)CCN4CC)cc2C(=O)N2CCc3ccccc3C2)c(C)c1Cl [Example 53, N,N-dibutyl-4-chloro-1-(4-(1-ethylindolin-5-ylsulfonylcarbamoyl)-2-(1,2,3,4-tetrahydroisoquinoline-2-carbonyl)phenyl)-5-methyl-1H-pyrazole-3-carboxamide] |
| 250 | 230 | CCCCN(CCCC)C(=O)c1nn(-c2ccc(C(=O)NS(=O)(=O)c3ccc4c(c3)CCN4C(=O)C3CCCCC3)cc2C(=O)N2CCc3ccccc3C2)c(C)c1Cl [Example 55, N,N-dibutyl-4-chloro-1-(4-(1-(cyclohexanecarbonyl)indolin-5-ylsulfonylcarbamoyl)-2-(1,2,3,4-tetrahydroisoquinoline-2-carbonyl)phenyl)-5-methyl-1H-pyrazole-3-carboxamide] |
| 20 | 40 | CCCCN(CCCC)C(=O)c1nn(-c2ccc(C(=O)NS(=O)(=O)c3ccc4c(c3)CCN4Cc3ccc(Cl)c(Cl)c3)cc2C(=O)N2CCc3ccccc3C2)c(C)c1Cl [Example 59, N,N-dibutyl-4-chloro-1-(4-(1-(3,4-dichlorobenzyl)indolin-5-ylsulfonylcarbamoyl)-2-(1,2,3,4-tetrahydroisoquinoline-2-carbonyl)phenyl)-5-methyl-1H-pyrazole-3-carboxamide] |
| 200 | 2450 | CCCCN(CCCC)C(=O)c1nn(-c2ccc(C(=O)NS(=O)(=O)c3ccc4c(c3)CCN4C(=O)Cc3ccc(Cl)c(Cl)c3)cc2C(=O)N2CCc3ccccc3C2)c(C)c1Cl [Example 64, N,N-dibutyl-4-chloro-1-(4-(1-(2-(3,4-dichlorophenyl)acetyl)indolin-5-ylsulfonylcarbamoyl)-2-(1,2,3,4-tetrahydroisoquinoline-2-carbonyl)phenyl)-5-methyl-1H-pyrazole-3-carboxamide] |
| 50 | 60 | CCCCN(CCCC)C(=O)c1nn(-c2ccc(C(=O)NS(=O)(=O)c3ccc4c(c3)CCN4CCSc3ccccc3)cc2C(=O)N2CCc3ccccc3C2)c(C)c1Cl [Example 67, N,N-dibutyl-4-chloro-5-methyl-1-(4-(1-(2-(phenylthio)ethyl)indolin-5-ylsulfonylcarbamoyl)-2-(1,2,3,4-tetrahydroisoquinoline-2-carbonyl)phenyl)-1H-pyrazole-3-carboxamide] |
